{"source": "paper PMC10498667", "about": "(Chemical Science, 2023)", "key": {"[1]": {"test_system": "preformed Aβ42 and Aβ40 aggregates", "assay": "Disaggregation experiments with preformed Aβ aggregates", "type": "biochemical", "conditions": "Aβ42 and Aβ40, with and without Cu(II), Zn(II); flavonoid 50 μM; 24 h", "procedure": "To verify whether a series of nine flavonoids can modulate the aggregation of Aβ with and without metal ions, the molecular weight (MW) distribution and morphology of the resultant Aβ species were determined by gel electrophoresis with western blotting (gel/western blot) using an anti-Aβ antibody (6E10) and transmission electron microscopy (TEM), respectively. Two types of experiments were carried out employing two major Aβ isoforms, i.e., Aβ42 and Aβ40:[25] (i) inhibition studies to identify the effect of 1–5, 1a, 1b, 4a, and 4b on the formation of Aβ aggregates; (ii) disaggregation studies to evaluate if the flavonoids with reactivities towards Aβ aggregation in inhibition studies can disassemble preformed Aβ aggregates or modulate their further aggregation, as illustrated in Fig. 4 and S5–S9. ^† Moreover, the solutions containing the flavonoids and Cu(II) were probed by electronic absorption (Abs) spectroscopy to monitor their metal binding. […] As expected, no Abs change of 1a and 4a composed of methoxy groups on the A ring was detected by addition of Cu(II). […]\nAb Aggregation Experiments. Ab was dissolved in ammonium hydroxide [1% w/w NH4OH (aq)] and the resulting solution was aliquoted, lyophilized overnight, and stored at –80 °C. A stock solution of Ab was then prepared by dissolving the lyophilized peptide with NH4OH (1% w/w, aq; 10 µL) and diluting with ddH2O. All Ab samples were prepared following previously reported procedures.21,22 The concentration of the peptide solution was determined by measuring its […]\nsolution (20 mM HEPES, pH 7.4, 150 mM NaCl) was used for preparing Ab samples. For the inhibition studies, flavonoids (final concentration, 50 µM; 1% v/v DMSO) were added to the samples of Ab (25 µM) in the absence and presence of CuCl2 or ZnCl2 (25 µM) followed by incubation for 24 h at 37 °C with constant agitation. For the disaggregation studies, Ab (25 µM) was incubated with and without CuCl2 or ZnCl2 (25 µM) for 24 h at 37 °C with constant agitation to generate preformed Ab aggregates. The resultant Ab aggregates were then treated with flavonoids (50 µM) and incubated for additional 24 h with constant agitation. […]"}, "[2]": {"biological_target": "T1, Aβ42 (Homo sapiens, UniProt P05067)", "T1 construct": "purchased Peptide Institute, Inc. (Osaka, Japan)", "T1 sequence (P05067 672-713 limits assumed)": "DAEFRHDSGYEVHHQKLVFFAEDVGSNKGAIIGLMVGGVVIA", "assay": "Dot blot assay with anti-oligomer (A11) and anti-fibril (OC) antibodies", "type": "biochemical", "conditions": "flavonoid 200 μM, up to 24 h", "excerpt": "Moreover, to investigate the effects of the flavonoids on the oligomerization and fibrilization of metal-free Aβ42 and metal–Aβ42, we performed the dot blot assay employing anti-oligomer (A11) and anti-fibril (OC) antibodies,[23] as illustrated in Fig. S12. ^† It should be noted that the thioflavin-T (ThT) assay utilized for monitoring the formation of β-sheet-rich aggregates cannot be carried out under our experimental conditions since the absorption windows of 4, 5, and 4b interfere with the excitation and emission wavelengths of ThT (Fig. S13 ^†). […]\nDot Blot Assay. The samples containing Ab42 (100 µM) with or without CuCl2 or ZnCl2 (100 µM) in the absence and presence of flavonoids (200 µM; 1% v/v DMSO) were prepared in 20 mM HEPES, pH 7.4, 150 mM NaCl and incubated for various time points (0, 1, 2, 3, 4, 6, 12, and 24 h). […] The membrane was incubated with a primary antibody [i.e., 6E1026 for Ab species (1:2,000), A1126 for Ab oligomers (1:1,000; Invitrogen, Carlsbad, CA, USA), or OC26 for Ab fibrils (1:2,000; Merch Millipore, Billerica, MA, USA)] in the solution of BSA (2% w/v in TBS-T) for 4 h at room temperature. […] A homemade ECL kit21–23 was used to visualize the results on a ChemiDoc MP Imaging System.\nThe intensity observed from A11- or OC-detectable Ab species was quantified, relative to that detected from 6E10, by the ImageJ software. […]"}, "[3]": {"assay": "MTT cytotoxicity assay", "type": "cell-based", "conditions": "human", "procedure": "Flavonoid 6 was synthesized following previously reported procedures with modifications.[66–68] […] It should be noted that cell viability was calculated, relative to that of the cells containing an equivalent amount of DMSO.\nCell viability was determined by the MTT assay [MTT = 3-(4,5-dimethylthiazol-2-yl)-2,5-diphenyltetrazolium bromide]. Cells were seeded in a 96-well plate (15,000 cells/100 µL) and treated with the samples {[flavonoid] = 5, 10, 25, 50, and 100 µM (1% v/v DMSO)}. After 24 h incubation, 5Y cells were washed with phosphate buffered saline (PBS; GIBCO). MTT [5 mg/mL in PBS (pH 7.4, GIBCO); 25 µL] was added to each well and the plate was incubated for 4 h at 37 °C. The formazan produced by cells was solubilized using an acidic solution of DMF (pH 4.5, 50% v/v, aq) and sodium dodecyl sulfate (SDS; 20% w/v) overnight at room temperature in the dark. Absorbance was measured at 600 nm by a microplate reader (Molecular Devices). Cell viability, relative to that of the cells containing an equivalent amount of DMSO, was calculated.\nThe measurements were conducted in triplicate. […]"}, "[4]": {"conditions": "Cu(II)–Aβ42 or Zn(II)–Aβ42 100 μM"}, "[5]": {"conditions": "human neuroblastoma 5Y cells, 100 μM flavonoid, 24 h, 5Y cells, relative to DMSO, read-out: cell viability"}, "[6]": {"conditions": "100 μM flavonoid, 24 h, 5Y cells, relative to DMSO, read-out: cell viability"}}, "note": "Read-outs that look alike come from different tables or passages of the source.", "data": [{"smiles": "O=c1c(-c2ccc(O)c(O)c2)coc2cc(O)c(O)c(O)c12", "note": "[compound 6, 3-(3,4-dihydroxyphenyl)-5,6,7-trihydroxy-4H-chromen-4-one]", "values": [{"measurement": "effect on preformed metal-free Aβ and metal–Aβ aggregates", "setting": "[1]", "value": "affected their corresponding preformed Aβ aggregates and seeds"}, {"measurement": "A11- and OC-detectable signals (oligomers and fibrils)", "setting": "[2]; [4]", "value": "significantly decreased A11- and OC-detectable signal intensities"}, {"measurement": "A11- and OC-detectable signals (oligomers and fibrils)", "setting": "[2]; metal-free Aβ42 100 μM", "value": "significantly decreased A11- and OC-detectable signal intensities"}]}, {"smiles": "O=c1cc(-c2ccccc2)oc2c(Cl)c(O)c(O)c(O)c12", "note": "[compound 5, 8-chlorobaicalein]", "values": [{"measurement": "effect on preformed metal-free Aβ and metal–Aβ aggregates", "setting": "[1]", "value": "could disassemble preformed metal-free Aβ and metal–Aβ aggregates"}, {"measurement": "viability at 24 h, 100 μM", "setting": "[3]; [5]", "value": "~60", "unit": "%"}, {"measurement": "A11- and OC-detectable signals (oligomers and fibrils)", "setting": "[2]; metal-free Aβ42 100 μM", "value": "the formation of Aβ oligomers and fibrils were reduced"}]}, {"smiles": "O=c1cc(-c2ccccc2)oc2cc(O)c(O)cc12", "note": "[compound 2, 6,7-dihydroxyflavone]", "values": [{"measurement": "effect on preformed metal-free Aβ and metal–Aβ aggregates", "setting": "[1]", "value": "less noticeably affected"}, {"measurement": "viability at 24 h, 100 μM", "setting": "[3]", "value": "~60", "unit": "%"}, {"measurement": "A11- and OC-detectable signals (oligomers and fibrils)", "setting": "[2]; [4]", "value": "not significantly varied"}, {"measurement": "A11- and OC-detectable signals (oligomers and fibrils)", "setting": "[2]; metal-free Aβ42 100 μM", "value": "not significantly varied"}]}, {"smiles": "O=c1c(-c2ccccc2)coc2cc(O)c(O)c(O)c12", "note": "[4b, 5,6,7-trihydroxyisoflavone]", "values": [{"measurement": "effect on preformed metal-free Aβ and metal–Aβ aggregates", "setting": "[1]", "value": "could disassemble preformed metal-free Aβ and metal–Aβ aggregates"}, {"measurement": "viability at 24 h, 100 μM", "setting": "[3]; [5]", "value": "~70", "unit": "%"}, {"measurement": "A11- and OC-detectable signals (oligomers and fibrils)", "setting": "[2]; [4]", "value": "gradually decreased signal intensities"}, {"measurement": "A11- and OC-detectable signals (oligomers and fibrils)", "setting": "[2]; metal-free Aβ42 100 μM", "value": "the formation of Aβ oligomers and fibrils were reduced"}]}, {"smiles": "O=c1cc(-c2ccccc2)oc2cc(O)cc(O)c12", "note": "[compound 1, chrysin]", "values": [{"measurement": "effect on preformed metal-free Aβ and metal–Aβ aggregates", "setting": "[1]", "value": "less noticeably affected"}, {"measurement": "viability at 24 h, 100 μM", "setting": "[3]; [6]", "value": "~30", "unit": "%"}, {"measurement": "A11- and OC-detectable signals (oligomers and fibrils)", "setting": "[2]; [4]", "value": "not significantly varied"}, {"measurement": "A11- and OC-detectable signals (oligomers and fibrils)", "setting": "[2]; metal-free Aβ42 100 μM", "value": "not significantly varied"}]}, {"smiles": "O=c1cc(-c2ccccc2)oc2ccc(O)c(O)c12", "note": "[compound 3, 5,6-dihydroxyflavone]", "values": [{"measurement": "effect on preformed metal-free Aβ and metal–Aβ aggregates", "setting": "[1]", "value": "the reactivity was shown only in the presence of metal ions"}, {"measurement": "viability at 24 h, 100 μM", "setting": "[3]; [5]", "value": "~50", "unit": "%"}]}, {"smiles": "O=c1cc(-c2ccccc2)oc2cc(O)c(O)c(O)c12", "note": "[compound 4, baicalein]", "values": [{"measurement": "effect on preformed metal-free Aβ and metal–Aβ aggregates", "setting": "[1]", "value": "could disassemble preformed metal-free Aβ and metal–Aβ aggregates"}, {"measurement": "viability at 24 h, 100 μM", "setting": "[3]; [6]", "value": "~70", "unit": "%"}, {"measurement": "A11- and OC-detectable signals (oligomers and fibrils)", "setting": "[2]; metal-free Aβ42 100 μM", "value": "the formation of Aβ oligomers and fibrils were reduced"}]}]}
